“And” between values parts separate entries of the source, which are not always exact repeats. Identical values can stand only once.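 Cells were grown in 96-well plates and exposed to each compound for 48 hours at five concentrations; endpoints were interpolated linearly between bracketing concentrations, or set to the highest concentration if not reached. GI50: concentration for 50% inhibition of growth. TGI is the concentration that stops growth completely.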
Key:
Assay in all cases: growth of human tumour cells (NCI), 48 h
[1] = system: MCF7 breast
[2] = system: HOP-92 NSCLC
[3] = system: OVCAR-4 ovarian
[4] = system: SR leukemia
[5] = system: SK-MEL-5 melanoma
[6] = system: OVCAR-8 ovarian
[7] = system: SK-OV-3 ovarian
[8] = system: ACHN renal
[9] = system: HCT-116 colon
[10] = system: HS 578T breast

Compound `COc1cc(C2C(C#N)=C(N)OC3=C2C(=O)c2ccccc2C3=O)cc(OC)c1OC` (configuration not stated) has a GI50 [1] of 0.422 µM, a TGI [1] of 16.1 µM and a GI50 [2] of 0.861 µM. The TGI [2] was 24.9 µM, the GI50 [3] was 3.45 µM and the TGI [3] was 12.5 µM. It also gave a GI50 [4] of 0.337 µM, a TGI [4] greater than 100 µM and a GI50 [5] of 0.439 µM. It also gave a TGI [5] of 1.81 µM, a GI50 [6] of 1.12 µM and a TGI [6] of 24.1 µM. The GI50 [7] was 4.88 µM, the TGI [7] was greater than 100 µM and the GI50 [8] was 0.571 µM. For the same compound, the TGI [8] was 16.6 µM, the GI50 [9] was 0.43 µM and the TGI [9] was 30.6 µM. For the same compound, the GI50 [10] was 0.382 µM and the TGI [10] was 49.3 µM.
`COc1ccc(/C=C(\C#N)c2cc3ccccc3n2C)cc1` was tested, and the GI50 [1] was 0.343 µM, the TGI [1] was greater than 100 µM and the GI50 [2] was 1.5 µM. The TGI [2] was greater than 100 µM, the GI50 [3] was 1.09 µM and the TGI [3] was greater than 100 µM. The GI50 [4] was 0.176 µM, the GI50 [5] was 0.504 µM and the TGI [5] was 16.9 µM. For the same compound, the GI50 [6] was 0.56 µM, the TGI [6] was greater than 100 µM and the GI50 [7] was 0.787 µM. The TGI [7] was greater than 100 µM, the GI50 [8] was 0.654 µM and the TGI [8] was greater than 100 µM. It also gave a GI50 [9] of 0.426 µM, a TGI [9] greater than 100 µM and a GI50 [10] of 0.352 µM. For the same compound, the TGI [10] was greater than 100 µM.
`O=[N+]([O-])c1ccc2c(N=Nc3c(O)ccc4ccccc34)c(O)cc(S(=O)(=O)O)c2c1` gave a TGI [1] greater than 100 µM, a TGI [2] of 50 µM and a TGI [3] of 50 µM. For the same compound, the TGI [4] was greater than 100 µM, the GI50 [5] was 46.7 µM and the TGI [5] was 50 µM and > 100 µM. For the same compound, the GI50 [6] was 31.3 µM, the TGI [6] was 50 µM and > 100 µM and the TGI [7] was 50 µM. The GI50 [8] was 18.1 µM, the TGI [8] was 50 µM and > 100 µM and the GI50 [9] was 25.6 µM. The TGI [9] was 50 µM and > 100 µM, the GI50 [10] was 67.2 µM and the TGI [10] was greater than 100 µM.
`O=C(/C=C\c1ccnc2ccccc12)c1ccc([N+](=O)[O-])cc1` showed a GI50 [1] of 1.64 µM, a TGI [1] of 3.54 µM and a GI50 [2] of 3.99 µM. For the same compound, the TGI [2] was greater than 65.3 µM, the GI50 [3] was 3.71 µM and the TGI [3] was greater than 100 µM. It also gave a GI50 [4] of 2.28 µM, a TGI [4] of 7.37 µM and a GI50 [5] of 3.63 µM. The TGI [5] was 22.3 µM, the GI50 [6] was 12.4 µM and the TGI [6] was greater than 100 µM. The GI50 [7] was greater than 100 µM, the TGI [7] was greater than 100 µM and the GI50 [8] was 14.6 µM. For the same compound, the TGI [8] was greater than 100 µM, the GI50 [9] was 1.59 µM and the TGI [9] was 3.15 µM. It also gave a GI50 [10] of 27.3 µM and a TGI [10] greater than 96 µM.
`Cc1nc(NC(=O)N2CCC[C@H]2C(N)=O)sc1-c1ccnc(C(C)(C)C(F)(F)F)c1` was tested, and the GI50 [1] was 0.12 µM and 0.296 µM, the TGI [1] was greater than 38.4 µM and the GI50 [2] was 0.0598 µM and 0.13 µM. For the same compound, the TGI [2] was 1.52 µM and 2.89 µM, the GI50 [3] was 13.3 µM and > 10 µM and the TGI [3] was greater than 75.3 µM. The GI50 [4] was 8.94 µM and > 10 µM, the TGI [4] was 44.1 µM and > 10 µM and the GI50 [5] was 11.8 µM and > 10 µM. For the same compound, the TGI [5] was 24.6 µM and > 10 µM, the GI50 [6] was 8.28 µM and > 10 µM and the TGI [6] was 76.2 µM and > 10 µM. The GI50 [7] was 0.134 µM and 0.262 µM, the TGI [7] was 5.98 µM and 6.37 µM and the GI50 [8] was 5.6 µM and > 10 µM. For the same compound, the TGI [8] was greater than 100 µM, the GI50 [9] was 2.87 µM and 3.48 µM and the TGI [9] was greater than 87.3 µM. The TGI [10] was 21.2 µM and 3.1 µM.
Compound `C=C(C)C1/C=C(/C(C)C)CC[C@]2(C)O[C@@H]2CC[C@H](C)CC1=O` (some centres not stated) has a GI50 [1] of 50.7 µM, a TGI [1] greater than 100 µM and a GI50 [2] of 99.5 µM. The TGI [2] was greater than 100 µM, the GI50 [3] was 72.4 µM and the TGI [3] was greater than 100 µM. For the same compound, the GI50 [4] was 19.2 µM, the TGI [4] was 58.5 µM and the GI50 [5] was 55 µM. It also gave a TGI [5] greater than 100 µM, a GI50 [6] of 58.3 µM and a TGI [6] greater than 100 µM. It also gave a GI50 [7] greater than 100 µM, a TGI [7] greater than 100 µM and a GI50 [8] of 72.4 µM. The TGI [8] was greater than 100 µM, the GI50 [9] was 17.7 µM and the TGI [9] was 42.2 µM. For the same compound, the GI50 [10] was 31.7 µM and the TGI [10] was greater than 100 µM.
`Cn1cnc([N+](=O)[O-])c1Sc1ncnc2c1ncn2C1OC(CO)C(O)C1O` (configuration not stated) showed a GI50 [1] of 1.79 µM, a TGI [1] greater than 100 µM and a GI50 [2] of 31.3 µM. The TGI [2] was greater than 100 µM, the GI50 [3] was 45.3 µM and the TGI [3] was greater than 100 µM. It also gave a GI50 [4] of 5.2 µM, a TGI [4] greater than 100 µM and a GI50 [5] of 11.4 µM. It also gave a TGI [5] greater than 100 µM, a GI50 [6] of 6.19 µM and a TGI [6] greater than 100 µM. For the same compound, the GI50 [7] was 0.564 µM, the TGI [7] was greater than 100 µM and the GI50 [8] was 25.7 µM. For the same compound, the TGI [8] was greater than 100 µM, the GI50 [9] was 4.62 µM and the TGI [9] was greater than 100 µM. It also gave a GI50 [10] of 27.8 µM and a TGI [10] greater than 100 µM.
`O=C(/C=C/c1ccco1)Nc1ncc(Cc2ccc(F)cc2)s1` showed a GI50 [1] of 0.0612 µM, a TGI [1] greater than 100 µM and a GI50 [2] of 8.56 µM. The TGI [2] was greater than 100 µM, the GI50 [3] was 1.22 µM and the TGI [3] was greater than 100 µM. For the same compound, the GI50 [4] was 0.0356 µM, the TGI [4] was greater than 68 µM and the GI50 [5] was 0.0476 µM. For the same compound, the GI50 [6] was 0.152 µM, the TGI [6] was greater than 100 µM and the GI50 [7] was 0.0455 µM. The TGI [7] was greater than 100 µM, the GI50 [8] was 0.0749 µM and the TGI [8] was greater than 100 µM. For the same compound, the GI50 [9] was 0.0408 µM, the TGI [9] was greater than 100 µM and the GI50 [10] was 0.124 µM. It also gave a TGI [10] greater than 100 µM.
`COc1ccc(C(Nc2ncccn2)c2cc3c(cc2O)OCO3)cc1` (configuration not stated) showed a TGI [1] of 77.3 µM, a TGI [2] greater than 100 µM and a TGI [3] greater than 100 µM. For the same compound, the TGI [4] was 32.4 µM, the TGI [5] was 50.9 µM and the TGI [6] was 45.2 µM. The TGI [7] was 51.2 µM, the TGI [8] was greater than 100 µM and the TGI [9] was 71.3 µM. The TGI [10] was 52.4 µM.
`Cn1c(O)c(C(=O)Nc2ccc([N+](=O)[O-])cc2)c(=O)n(C)c1=S` was tested, and the TGI [1] was greater than 100 µM, the TGI [2] was 4.7 µM and the TGI [3] was 13.5 µM. It also gave a TGI [4] greater than 100 µM, a TGI [5] of 5.84 µM and a TGI [6] of 14.9 µM. For the same compound, the TGI [7] was greater than 81.1 µM, the TGI [8] was greater than 27.3 µM and the TGI [9] was 5.63 µM. For the same compound, the TGI [10] was 5.85 µM.
With `COc1ccc(/C=C\c2cc(OC)c(OC)c(OC)c2)c(NS(=O)(=O)c2ccc(C)cc2)c1O` the GI50 [1] was 0.0333 µM, the TGI [1] was greater than 39.2 µM and the GI50 [2] was 0.102 µM. The TGI [2] was 27.5 µM, the GI50 [3] was 0.233 µM and the TGI [3] was greater than 100 µM. It also gave a GI50 [4] of 0.031 µM, a TGI [4] greater than 51.5 µM and a GI50 [5] of 0.0359 µM. For the same compound, the TGI [5] was 0.195 µM, the GI50 [6] was 0.0498 µM and the TGI [6] was greater than 100 µM. It also gave a GI50 [7] of 0.685 µM, a TGI [7] greater than 100 µM and a GI50 [8] of 0.0874 µM. It also gave a TGI [8] greater than 59.9 µM, a GI50 [9] of 0.0357 µM and a TGI [9] greater than 100 µM. For the same compound, the GI50 [10] was 0.0483 µM and the TGI [10] was greater than 100 µM.
`COc1ccc(/C=C2\N=C3SC=C(N)N3C2=O)cc1` gave a GI50 [1] of 0.459 µM, a TGI [1] of 6.29 µM and a GI50 [2] of 0.224 µM. The TGI [2] was 1.93 µM, the GI50 [3] was 0.485 µM and the TGI [3] was 11 µM. It also gave a GI50 [4] of 1.02 µM, a TGI [4] of 4.85 µM and a GI50 [5] of 0.833 µM. It also gave a TGI [5] of 2.64 µM, a GI50 [6] of 1.44 µM and a TGI [6] of 10.4 µM. For the same compound, the GI50 [7] was 2.16 µM, the TGI [7] was 11.7 µM and the GI50 [8] was 0.711 µM. For the same compound, the TGI [8] was 2.43 µM, the GI50 [9] was 1.11 µM and the TGI [9] was 2.61 µM. The GI50 [10] was 1.19 µM and the TGI [10] was 5.56 µM.
Work on `C#Cc1ccc(NC(=O)c2ccc(/C=C/C(=O)c3nccn3C)cc2)cc1` yielded a GI50 [1] of 0.3 µM, a TGI [1] of 1.09 µM and a GI50 [2] of 0.53 µM. The TGI [2] was 2.23 µM, the GI50 [3] was 0.727 µM and the TGI [3] was 25 µM. It also gave a GI50 [4] of 0.115 µM, a TGI [4] of 3.33 µM and a GI50 [5] of 0.49 µM. It also gave a TGI [5] of 1.01 µM, a GI50 [6] of 0.717 µM and a TGI [6] of 8.79 µM. It also gave a GI50 [7] of 0.979 µM, a TGI [7] of 24.3 µM and a GI50 [8] of 0.445 µM. For the same compound, the TGI [8] was 0.839 µM, the GI50 [9] was 0.326 µM and the TGI [9] was 0.721 µM. It also gave a GI50 [10] of 0.853 µM and a TGI [10] of 11.9 µM.

— PubChem BioAssay (NCI)
